# Results reported in US11207312B2, “Metallo-beta-lactamase inhibitors and methods of use thereof” (priority 2017, dated 2021).
# How the values were obtained:
# [1] = tested on: Serratia marcescens expressing IMP-1 (CL5741); type: cell-based; conditions: with imipenem 1 μg/ml; 95% inhibition of bacterial growth
# Experimental: (§1) The bacterial strains tested included the clinical strains Escherichia coil expressing NDM-1 (CLB30005, CLB30016), Serratia marcescens expressing IMP-1 (CL5741), and Klebsiella pneumoniae expressing VIM-1 (H-LMA599644). Inhibitor activity was measured in the presence and absence of imipenem in a 384-well microplate.
# (§2) The clinical strains CLB30016, CL5741 and IHMA599644 were grown on trypticase soy agar containing 5% sheep's blood. The bacteria on agar plates were incubated at 35° C. with humidity overnight. The following day, individual colonies from each clinical strain were picked and resuspended in 5 ml saline to attain an OD600 of […], for CLB30016, C15741 and IHMA599644, respectively. These were further diluted 1:100 into 1.1× CAMHB and used to inoculate the test wells as described below.
# (§3) Imipenem in 10 mM 3-(N-morpholino)propanesulfonic acid (MOPS, pH 7) was stored in single use aliquots at −80° C. […] On the day of the assay, 4 μl of antibiotic was added to 45 μl of bacteria followed by 1 μl of test compound and mixed by pipetting and with an orbital shaker. The concentration of antibiotic used in the assay was 1 μg/ml. Microplates were covered and incubated at 35° C. for 22 hours to 24 hours. At the end of the incubation, absorbance was determined using a spectrophotometer. The synergistic concentration of MBLI was determined by identifying the lowest concentration of test compound in the presence of a given concentration of antibiotic that was required to inhibit 95% of the growth of the bacteria. The results for Examples 1-209 are reported in Table 1, expressed as the concentration of compound that potentiated the action of antibiotic (imipenem) affecting 95% inhibition of bacterial growth (MITC95).
# [2] = tested on: Escherichia coli expressing NDM-1 (CLB30016); type: cell-based; conditions: with imipenem 1 μg/ml; 95% inhibition of bacterial growth
# Experimental: as §1, §2, §3
# [3] = tested on: Klebsiella pneumoniae expressing VIM-1 (IHMA599644); type: cell-based; conditions: with imipenem 1 μg/ml; 95% inhibition of bacterial growth
# Experimental: as §1, §2, §3
# NDM-1 = NDM-1 (Klebsiella pneumoniae, UniProt C7C422); test: biochemical; type: biochemical; conditions: CCF2-FA fluorescence assay, 2 hours at 25° C.
# Experimental: (§4) The Class B enzyme activities were measured in the presence of the test inhibitor in a fluorescence assay against a commercially available substrate consisting of a cephalosporin core linking 7-hydroxycoumarin to fluorescein (CCF2-FA). The enzyme (NDM-1, IMP-1 or VIM-1) and the substrate were diluted in 100 mM KH2PO4 buffer (pH 7) containing 0.005% Tween-20 and 10 μM ZnSO4. In the assay, the final concentration of enzyme was 1 pM, 2 pM and 30 pM for NDM-1, IMP-1 and VIM-1, respectively, and the final concentration of CCF2-FA was 1.25 μM. The test inhibitor was dissolved in dimethylsulfoxide and diluted 1:50 in the assay, resulting in a final concentration range of 20 μM to 0.00063 μM. In a 384-well microplate, the test inhibitor was incubated with the metallo-β-lactamase enzyme and the substrate for 2 hours at 25° C. Fluorescence at 460 nm following excitation at 405 nm was measured. The IC50 value was determined from semi-logarithmic plots of enzyme inhibition versus inhibitor concentration, with a curve generated using a 4-parameter fit.
# [4] = tested on: P. aeruginosa MB9798 (efflux+, IMP-1 plasmid); conditions: for MB9798 MITC95 P. aeruginosa uM Efflux WT: efflux + (MB9798) strain, imipenem at 2 μg/mL, in the presence of a class A, C, D serine β-lactamase inhibitor closely related to relebactam; for Efflux ratio: fold difference between efflux+ (MB9798) and efflux− (MB9799) strains
# Source text: (§5) The strain background is Pseudomonas aeruginosa PAO1. A wild-type (M135919) and an isogenic strain in which multiple efflux pumps have been disrupted genetically were used. The MBL IMP-1, obtained from a clinical isolate was introduced into the strain pair by the following process:
# (§6) The plasmid DNA was transformed into parental MB5919 (oprD+, efflux+, inducible AmpC) and MB5890 (oprD+, efflux−, inducible AmpC) isogenic strains by electroporation.
# (§7) The strain set was then used as a pair to determine the effect of metallo-β-lactamase inhibitors of Formula I on the MIC of imipenem and/or ceftazidime. A fixed concentration of antibiotic is included in standard microbroth MIC tests, usually at the CLSI breakpoint concentration, A fixed amount of a class A/C beta-lactamase inhibitor is also included to inhibit the resident Pseudomonas AmpC enzyme. A serial titration of the metallo-β-lactamase inhibitor was included and the concentration of metallo-β-lactamase inhibitor which restores susceptibility of the strain to the included antibiotic was recorded. That concentration of metallo-β-lactamase inhibitor was then compared between the two strains to determine the fold difference between the efflux+(MB9798) and efflux−(MI39799) strains, which indicates the extent to which the MBLi is subject to efflux.
# [5] = tested on: P. aeruginosa MB9799 (efflux-, IMP-1 plasmid); type: cell-based, Pseudomonas aeruginosa; conditions: efflux − (MB9799) strain; imipenem at 2 μg/mL; in the presence of a class A, C, D serine β-lactamase inhibitor closely related to relebactam
# Source text: as §5, §6, §7
# VIM-1 = VIM-1 (Pseudomonas aeruginosa (strain ATCC 15692 / DSM 22644 / CIP 104116 / JCM 14847 / LMG 12228 / 1C / PRS 101 / PAO1), UniProt A0A0F7KYQ8); test: biochemical; conditions: CCF2-FA fluorescence assay, 2 hours at 25° C.; read-out: VIM1 IC50
# Experimental: as §4
# IMP-1 = IMP-1 (Serratia marcescens, UniProt P52699); test: biochemical; conditions: CCF2-FA fluorescence assay, 2 hours at 25° C.; read-out: IMP1 IC50
# Experimental: as §4
# VIM-2 = VIM-2 (Escherichia coli, UniProt Q5U7L7); test: biochemical; conditions: CCF2-FA fluorescence assay; read-out: VIM2 IC50
# IMP-1, sequence (P52699 whole entry, looked up, species assumed): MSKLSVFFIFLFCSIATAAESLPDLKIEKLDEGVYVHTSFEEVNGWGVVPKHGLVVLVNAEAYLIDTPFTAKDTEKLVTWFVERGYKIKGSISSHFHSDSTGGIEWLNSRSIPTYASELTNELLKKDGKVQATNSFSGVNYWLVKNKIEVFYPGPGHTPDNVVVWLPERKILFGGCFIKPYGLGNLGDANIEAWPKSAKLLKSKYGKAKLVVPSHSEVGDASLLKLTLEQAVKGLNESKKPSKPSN
# NDM-1, sequence (C7C422 whole entry, looked up, species assumed): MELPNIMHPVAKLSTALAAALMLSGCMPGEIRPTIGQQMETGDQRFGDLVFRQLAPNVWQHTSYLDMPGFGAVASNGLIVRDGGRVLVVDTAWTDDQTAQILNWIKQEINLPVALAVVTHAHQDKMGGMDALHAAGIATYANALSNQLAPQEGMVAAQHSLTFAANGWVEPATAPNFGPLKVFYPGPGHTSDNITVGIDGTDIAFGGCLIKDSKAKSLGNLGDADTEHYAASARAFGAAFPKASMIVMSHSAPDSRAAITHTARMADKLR
Structure (SMILES),CL5741 S. marcescens MITC95 IMP [1] [µM],CLB30016 E. coli MITC95 NDM [2] [µM],IHMA599644 K. pneumoniae MITC95 VIM [3] [µM],IC50 (NDM-1) [nM],MB9798 MITC95 P. aeruginosa uM Efflux WT [4] [µM],Efflux ratio [4],MB9799 MITC95 P. aeruginosa uM Efflux Mutant [5] [µM],IC50 (VIM-1) [nM],IC50 (IMP-1) [nM],IC50 (VIM-2) [nM]
"NC1CCCN(c2ccc(S(=O)(=O)C3CNC3)c(S(N)(=O)=O)c2-c2nnn[nH]2)CC1 (stereo not drawn) [Example 32, 3-(4-aminoazepan-1-yl)-6-(azetidin-3-ylsulfonyl)-2-(1H-tetrazol-5-yl)benzenesulfonamide]",3.13,6.25,1.56,122,12.50,4.00,3.13,2.14,191,
"N[C@@H]1CCCN(c2ccc(S(=O)(=O)C3CNC3)c(S(N)(=O)=O)c2-c2nnn[nH]2)C1 [Example 28, (R)-3-(3-aminopiperidin-1-yl)-6-(azetidin-3-ylsulfonyl)-2-(1H-tetrazol-5-yl)benzenesulfonamide]",6.25,0.78,1.56,61.9,50.00,8.00,6.25,37.2,463,
"NC[C@@H](O)CNS(=O)(=O)c1ccc(Nc2ncc[nH]2)c(-c2nn[nH]n2)c1S(N)(=O)=O [Example 203, (R)-4-((1H-imidazol-2-yl)amino)-N1-(3-amino-2-hydroxypropyl)-3-(2-tetrazol-5-yl)benzene-1,2-disulfonamide bis(2,2,2-trifluoroacetate)]",0.78,0.20,0.78,,3.13,2.00,1.56,8.5,26.4,19.6
NCCS(=O)(=O)c1ccc(N2CCCCC2)c(-c2nnn[nH]2)c1S(N)(=O)=O [Example 14],2.34,0.78,2.34,3.94,12.50,16.00,0.78,0.73,1.34,
"NC1CCCCN(c2ccc(S(=O)(=O)C3CNC3)c(S(N)(=O)=O)c2-c2nnn[nH]2)C1 (stereo not drawn) [Example 33, 3-(3-aminoazepan-1-yl)-6-(azetidin-3-ylsulfonyl)-2-(1H-tetrazol-5-yl)benzenesulfonamide]",3.13,1.56,0.78,110,25.00,8.00,3.13,4.43,137,
"NC[C@@H](O)CNS(=O)(=O)c1ccc(N2CCC3(CC2)CNC(=O)OC3)c(-c2nn[nH]n2)c1S(N)(=O)=O [Example 26, (R)-N^1-(3-amino-2-hydroxypropyl)-4-(3-oxo-2-oxa-4,9-diazaspiro[5.5]undecan-9-yl)-3-(2H-tetrazol-5-yl)benzene-1,2-disulfonamide]",6.25,12.50,12.50,,6.25,2.00,3.13,0.63,1.02,2.74
NCC1CCN(c2ccc(S(=O)(=O)N[C@@H]3CCNC3)c(S(N)(=O)=O)c2-c2nn[nH]n2)CCN1 (stereo partly drawn) [Example 163],1.56,0.39,1.56,,6.25,2.00,3.13,0.74,49,52.9
"N[C@H]1CCCN(c2ccc(S(=O)(=O)C3CNC3)c(S(N)(=O)=O)c2-c2nnn[nH]2)C1 [Example 29, (S)-3-(3-aminopiperidin-1-yl)-6-(azetidin-3-ylsulfonyl)-2-(1H-tetrazol-5-yl)benzenesulfonamide]",6.25,1.56,0.78,86,25.00,8.00,3.13,9.45,229,
NCCS(=O)(=O)c1ccc(N2CCOCC2)c(-c2nnn[nH]2)c1S(N)(=O)=O [Example 15],3.13,1.56,3.13,11.5,12.50,8.00,1.56,2.51,6.5,
"NS(=O)(=O)c1ccc(N2CCC3(CCNCC3)C2=O)c(-c2nn[nH]n2)c1S(N)(=O)=O [Example 134, 4-(1-oxo-2,8-diazaspiro[4.5]decan-2-yl)-3-(2H-tetrazol-5-yl)benzene-1,2-disulfonamide]",12.50,6.25,6.25,182,50.00,8.00,6.25,62.9,480,
"NS(=O)(=O)c1c(S(=O)(=O)C2CNC2)ccc(N2CCC3(CCNCC3)CC2)c1-c1nnn[nH]1 [Example 30, 6-(azetidin-3-ylsulfonyl)-3-(3,9-diazaspiro[5.5]undecan-3-yl)-2-(1H-tetrazol-5-yl)benzenesulfonamide]",1.56,0.78,1.56,2.62,1.56,2.00,0.78,2.01,5.2,
